# According to US6700013B2, “Tricyclic fused heterocycle compounds, process for preparing the same and use thereof” (Nippon Suisan Kaisha, Ltd., priority 1999, dated 2004):
# Test system: actively sensitized guinea pigs
# Assay: Antigen induced airway hypersensitivity, airway reactivity to acetylcholine (PC100ACh)
# Type: in vivo, guinea pig
# Settings: orally 10 mg/kg 16 hours and 2 hours before the OVA challenge; 22 to 26 hours after challenge
# From the text: Bronchial asthma is a disease characterized by bronchial contraction, airway hypersensitivity and infiltration of inflammatory cells into the airway. Airway hypersensitivity is a condition in which the airway sensitively produces a contraction response to various slight stimuli. Particularly, airway hypersensitivity is considered to be a common feature among patients suffering from allergic bronchial asthma. This experimental system in which actively sensitized guinea pigs are used is useful as a airway hypersensitivity model. […]
# The specific airway resistance (sRaw) of wake guinea pigs was measured by the double flow plethysmography with the use of airway resistance measuring equipment (“Pulmos-1”, M.I.P.S., Japan).
# […], from twenty-two to twenty-six hours after the antigen challenge, the guinea pigs were placed in an animal chamber and allowed to inhale a physiological saline and acetylcholine (hereinafter referred to as “ACh”) solutions of 0.0625, 0.125, 0.25, 0.5, 1 and 2 mg/mL , respectively, in the order named, each for one minute until sRaw came to the value at least twice the baseline sRaw (sRaw after the inhalation of the physiological saline). The ACh concentration (hereinafter referred to as “PC100ACh”) necessary for 100% increase in the baseline sRaw was calculated from the concentration of ACh and sRaw-resistance curve. […]
structure (smiles),measurement,value
"C[C@@H]1C[C@H]2[C@@H]3CCC4=CC(=O)C=C[C@]4(C)[C@@]3(F)[C@@H](O)C[C@]2(C)[C@@]1(O)C(=O)CO [dexamethasone, Dexamethasone]",PC100ACh,1.14 mg/mL
